Test results published in US10844077B2, “Thiazolyl-containing compounds for treating proliferative diseases” (Dana-Farber Cancer Institute, Inc., priority 2014, dated 2020).
Several values for one entry are separate records, joined by “and”; a condition that tells them apart may be missing. Identical values can stand only once. Like-named read-outs stand apart in the source and are kept apart here.

What was measured:
Type in all cases: cell-based
[1] = target: kinases in BCWM.1 cells (Homo sapiens, UniProt Q86Y07); conditions: VRK2; Lys2; 1 μM, 90 min; GF
Method: (§1) The cells were harvested and lysed. […] Bound kinases were identified and quantitated by ACTIVX as described in Patricelli et al., Biochemistry, 2007, 46(2): 350-358. The compounds were tested in duplicates against duplicate or quadruplicate control samples.

[2] = target: kinases in BCWM.1 cells (Homo sapiens, UniProt P51957); conditions: NEK4; Lys2; 1 μM, 90 min; GF
Method: as §1

[3] = target: kinases in BCWM.1 cells (Homo sapiens, UniProt Q9UL54); conditions: TAO2; Lys2; 1 μM, 90 min; GF
Method: as §1

[4] = target: kinases in BCWM.1 cells (Homo sapiens, UniProt Q15208); conditions: NDR1; Lys2; 1 μM, 90 min; GF
Method: as §1

[5] = target: kinases in BCWM.1 cells (Homo sapiens, UniProt O00329); conditions: PIK3CD; ATP; 1 μM, 90 min; GF
Method: as §1

[6] = target: kinases in BCWM.1 cells (Homo sapiens, UniProt Q86UE8); conditions: TLK2; Lys2; 1 μM, 90 min; GF
Method: as §1

[7] = target: kinases in BCWM.1 cells (Homo sapiens, UniProt Q14289); conditions: PYK2; Activation Loop; 1 μM, 90 min; GF
Method: as §1

[8] = target: kinases in BCWM.1 cells (Homo sapiens, UniProt Q96Q15); conditions: SMG1; ATP; 1 μM, 90 min; GF
Method: as §1

[9] = target: kinases in BCWM.1 cells (Homo sapiens, UniProt Q96PY6); conditions: NEK1; Lys2; 1 μM, 90 min; GF
Method: as §1

[10] = target: kinases in BCWM.1 cells (Homo sapiens, UniProt Q96S44); conditions: PRPK; ATP Loop; 1 μM, 90 min; GF
Method: as §1

[11] = target: kinases in BCWM.1 cells (Homo sapiens, UniProt Q6PHR2); conditions: ULK3; Lys2; 1 μM, 90 min; GF
Method: as §1

[12] = target: kinases in BCWM.1 cells (Homo sapiens, UniProt Q9BZL6); conditions: PKD2; Lys1; 1 μM, 90 min; GF
Method: as §1

[13] = target: kinases in BCWM.1 cells (Homo sapiens, UniProt P53350); conditions: PLK1; Lys1; 1 μM, 90 min; GF
Method: as §1

[14] = target: kinases in BCWM.1 cells (Homo sapiens, UniProt P48426); conditions: PIP4K2A; ATP; 1 μM, 90 min; GF
Method: as §1

[15] = target: kinases in BCWM.1 cells (Homo sapiens, UniProt Q86SG6); conditions: NEK8; Lys2; 1 μM, 90 min; GF
Method: as §1

[16] = target: kinases in BCWM.1 cells (Homo sapiens, UniProt Q9UBE8); conditions: NLK; Lys2; 1 μM, 90 min; GF
Method: as §1

[17] = target: kinases in BCWM.1 cells (Homo sapiens, UniProt Q8TDX7); conditions: NEK7; Lys1; 1 μM, 90 min; GF
Method: as §1

[18] = target: kinases in BCWM.1 cells (Homo sapiens, UniProt Q15418); conditions: Lys2, 1 μM, 90 min, GF
Method: as §1

[19] = target: kinases in BCWM.1 cells (Homo sapiens, UniProt Q13523); conditions: PRP4; Lys2; 1 μM, 90 min; GF
Method: as §1

[20] = target: kinases in BCWM.1 cells (Homo sapiens, UniProt P04049); conditions: RAF1; Lys2; 1 μM, 90 min; GF
Method: as §1

[21] = tested on: kinases in BCWM.1 cells; conditions: 1 μM, GF
Method: as §1

[22] = target: kinases in BCWM.1 cells (Homo sapiens, UniProt Q7RTN6); conditions: STLK5; Activation Loop; 1 μM, 90 min; GF
Method: as §1

[23] = target: kinases in BCWM.1 cells (Homo sapiens, UniProt O95819)
Method: as §1

[24] = target: kinases in BCWM.1 cells (Homo sapiens, UniProt Q9H2G2); conditions: SLK; Lys2; 1 μM, 90 min; GF
Method: as §1

[25] = target: kinases in BCWM.1 cells (Homo sapiens, UniProt Q8TBX8); conditions: PIP4K2C; ATP; 1 μM, 90 min; GF
Method: as §1

[26] = target: kinases in BCWM.1 cells (Homo sapiens, UniProt Q9NRH2); conditions: SNRK; Lys2; 1 μM, 90 min; GF
Method: as §1

[27] = PCTAIRE2, PCTAIRE3, Lys1, 90 min
[28] = RSK1 domain1, RSK2 domain1, RSK3 domain1, Lys2, 90 min
[29] = ZC1/HGK, ZC2/TNIK, ZC3/MINK, Lys2, 90 min

kinases in BCWM.1 cells (Homo sapiens, UniProt Q15208), sequence (Q15208 2-465 limits assumed): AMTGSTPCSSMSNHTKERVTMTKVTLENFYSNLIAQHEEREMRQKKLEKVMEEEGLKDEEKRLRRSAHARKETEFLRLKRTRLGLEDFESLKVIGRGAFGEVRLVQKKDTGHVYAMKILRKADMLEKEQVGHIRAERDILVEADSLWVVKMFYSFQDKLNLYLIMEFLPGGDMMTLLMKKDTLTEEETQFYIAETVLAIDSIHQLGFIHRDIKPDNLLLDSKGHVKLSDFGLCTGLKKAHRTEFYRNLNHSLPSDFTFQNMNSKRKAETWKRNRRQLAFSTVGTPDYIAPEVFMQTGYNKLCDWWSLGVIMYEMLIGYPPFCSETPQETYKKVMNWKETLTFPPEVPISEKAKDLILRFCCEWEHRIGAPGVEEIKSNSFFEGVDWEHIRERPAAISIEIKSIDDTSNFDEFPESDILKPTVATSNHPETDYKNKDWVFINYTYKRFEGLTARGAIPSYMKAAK
kinases in BCWM.1 cells (Homo sapiens, UniProt P53350), sequence (P53350 2-603 limits assumed): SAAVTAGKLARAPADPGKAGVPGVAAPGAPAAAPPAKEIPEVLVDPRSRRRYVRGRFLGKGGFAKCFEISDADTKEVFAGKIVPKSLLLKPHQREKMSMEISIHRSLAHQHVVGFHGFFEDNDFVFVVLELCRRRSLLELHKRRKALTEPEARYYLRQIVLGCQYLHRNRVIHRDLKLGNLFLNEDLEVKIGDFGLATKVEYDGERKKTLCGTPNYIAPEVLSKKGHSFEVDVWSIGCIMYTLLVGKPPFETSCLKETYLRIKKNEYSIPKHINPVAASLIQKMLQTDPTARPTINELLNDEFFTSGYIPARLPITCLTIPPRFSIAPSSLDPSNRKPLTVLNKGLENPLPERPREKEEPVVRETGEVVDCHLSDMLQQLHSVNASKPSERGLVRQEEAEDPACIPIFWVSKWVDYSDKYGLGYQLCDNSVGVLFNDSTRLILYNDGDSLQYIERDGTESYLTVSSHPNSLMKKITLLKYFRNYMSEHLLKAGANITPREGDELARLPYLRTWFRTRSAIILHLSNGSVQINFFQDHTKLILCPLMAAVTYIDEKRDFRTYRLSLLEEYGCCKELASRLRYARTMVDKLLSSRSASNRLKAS
kinases in BCWM.1 cells (Homo sapiens, UniProt P48426), sequence (P48426 2-406 limits assumed): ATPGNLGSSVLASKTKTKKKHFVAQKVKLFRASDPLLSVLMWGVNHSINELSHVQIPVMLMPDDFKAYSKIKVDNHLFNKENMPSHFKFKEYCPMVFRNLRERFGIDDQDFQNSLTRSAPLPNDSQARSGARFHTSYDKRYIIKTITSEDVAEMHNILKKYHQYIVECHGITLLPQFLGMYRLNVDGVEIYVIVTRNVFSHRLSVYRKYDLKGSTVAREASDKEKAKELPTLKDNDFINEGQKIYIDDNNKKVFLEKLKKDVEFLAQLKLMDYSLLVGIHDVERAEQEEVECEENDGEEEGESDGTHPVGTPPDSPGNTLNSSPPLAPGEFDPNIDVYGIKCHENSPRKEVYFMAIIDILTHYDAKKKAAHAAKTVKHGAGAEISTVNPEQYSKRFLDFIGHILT
kinases in BCWM.1 cells (Homo sapiens, UniProt Q13523), sequence (Q13523 2-1007 limits assumed): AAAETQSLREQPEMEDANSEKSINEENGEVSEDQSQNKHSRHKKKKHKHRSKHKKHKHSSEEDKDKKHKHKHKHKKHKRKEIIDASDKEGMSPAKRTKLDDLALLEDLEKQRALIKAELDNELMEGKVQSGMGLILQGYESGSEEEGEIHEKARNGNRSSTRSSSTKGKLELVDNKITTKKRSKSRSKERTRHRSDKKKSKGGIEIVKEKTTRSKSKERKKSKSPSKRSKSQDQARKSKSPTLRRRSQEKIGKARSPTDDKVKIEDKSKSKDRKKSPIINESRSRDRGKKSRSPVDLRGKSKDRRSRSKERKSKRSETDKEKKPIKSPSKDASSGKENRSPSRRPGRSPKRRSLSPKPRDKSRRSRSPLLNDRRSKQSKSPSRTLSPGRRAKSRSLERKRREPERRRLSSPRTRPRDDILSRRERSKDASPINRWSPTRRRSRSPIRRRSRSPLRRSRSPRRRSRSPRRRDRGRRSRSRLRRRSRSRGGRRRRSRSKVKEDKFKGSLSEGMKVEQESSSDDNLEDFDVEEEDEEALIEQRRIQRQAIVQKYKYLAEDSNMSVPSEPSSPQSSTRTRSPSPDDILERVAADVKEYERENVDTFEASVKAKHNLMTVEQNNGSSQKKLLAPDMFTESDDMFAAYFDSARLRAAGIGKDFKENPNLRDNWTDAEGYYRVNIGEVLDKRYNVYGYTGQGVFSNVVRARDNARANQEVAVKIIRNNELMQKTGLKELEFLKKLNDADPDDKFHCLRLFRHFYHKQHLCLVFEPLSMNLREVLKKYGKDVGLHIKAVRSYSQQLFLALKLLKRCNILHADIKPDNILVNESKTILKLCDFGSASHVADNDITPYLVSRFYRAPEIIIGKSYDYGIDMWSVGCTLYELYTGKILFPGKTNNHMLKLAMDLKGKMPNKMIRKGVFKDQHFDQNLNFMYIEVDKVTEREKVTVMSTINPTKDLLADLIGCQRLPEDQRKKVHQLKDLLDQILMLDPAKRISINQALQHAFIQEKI
kinases in BCWM.1 cells (Homo sapiens, UniProt O95819), sequence (O95819 2-1239 limits assumed): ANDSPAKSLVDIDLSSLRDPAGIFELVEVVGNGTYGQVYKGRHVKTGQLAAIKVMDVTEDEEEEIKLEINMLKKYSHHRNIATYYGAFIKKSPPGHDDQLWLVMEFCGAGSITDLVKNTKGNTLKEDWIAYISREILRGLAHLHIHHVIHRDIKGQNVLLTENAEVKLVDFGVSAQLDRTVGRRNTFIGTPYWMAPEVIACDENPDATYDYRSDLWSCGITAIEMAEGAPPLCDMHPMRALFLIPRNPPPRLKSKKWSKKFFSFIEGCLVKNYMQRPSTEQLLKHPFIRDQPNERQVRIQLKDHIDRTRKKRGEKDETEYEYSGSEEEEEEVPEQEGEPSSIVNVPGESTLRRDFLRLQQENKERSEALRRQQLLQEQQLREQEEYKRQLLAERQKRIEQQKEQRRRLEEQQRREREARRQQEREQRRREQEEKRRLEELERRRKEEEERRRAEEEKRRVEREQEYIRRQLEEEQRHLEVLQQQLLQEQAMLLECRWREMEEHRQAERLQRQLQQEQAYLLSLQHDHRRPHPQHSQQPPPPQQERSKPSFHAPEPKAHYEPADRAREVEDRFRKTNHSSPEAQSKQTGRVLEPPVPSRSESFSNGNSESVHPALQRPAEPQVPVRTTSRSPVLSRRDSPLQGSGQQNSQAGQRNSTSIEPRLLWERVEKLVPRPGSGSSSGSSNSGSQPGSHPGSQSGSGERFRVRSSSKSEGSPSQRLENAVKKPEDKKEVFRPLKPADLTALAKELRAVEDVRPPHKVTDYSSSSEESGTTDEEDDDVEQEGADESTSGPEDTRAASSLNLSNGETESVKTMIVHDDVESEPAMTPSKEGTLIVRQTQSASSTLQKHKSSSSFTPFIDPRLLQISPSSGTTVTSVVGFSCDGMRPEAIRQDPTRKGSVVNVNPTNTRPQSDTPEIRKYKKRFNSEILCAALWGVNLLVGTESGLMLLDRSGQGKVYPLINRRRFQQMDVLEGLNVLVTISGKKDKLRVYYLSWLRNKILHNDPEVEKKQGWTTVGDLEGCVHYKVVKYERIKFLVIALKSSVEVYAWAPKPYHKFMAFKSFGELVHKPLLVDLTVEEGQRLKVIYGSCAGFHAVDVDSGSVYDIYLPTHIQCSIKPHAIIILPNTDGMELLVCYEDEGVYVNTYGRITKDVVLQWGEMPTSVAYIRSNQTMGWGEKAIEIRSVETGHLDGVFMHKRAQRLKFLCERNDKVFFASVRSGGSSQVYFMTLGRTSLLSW
kinases in BCWM.1 cells (Homo sapiens, UniProt Q8TBX8), sequence (Q8TBX8 2-421 limits assumed): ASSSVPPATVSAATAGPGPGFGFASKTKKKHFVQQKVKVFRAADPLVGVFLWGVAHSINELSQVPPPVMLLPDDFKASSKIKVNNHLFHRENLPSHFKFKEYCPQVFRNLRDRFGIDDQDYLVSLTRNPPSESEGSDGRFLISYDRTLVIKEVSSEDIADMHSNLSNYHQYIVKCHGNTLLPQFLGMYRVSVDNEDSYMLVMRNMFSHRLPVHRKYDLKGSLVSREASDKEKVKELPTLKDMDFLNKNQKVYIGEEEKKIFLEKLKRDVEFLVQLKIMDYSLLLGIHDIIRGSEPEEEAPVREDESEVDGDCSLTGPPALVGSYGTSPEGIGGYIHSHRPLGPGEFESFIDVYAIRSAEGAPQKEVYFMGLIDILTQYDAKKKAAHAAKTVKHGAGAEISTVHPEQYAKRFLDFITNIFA

C=CC(=O)N1CC[C@H](Nc2nccc(Nc3ncc(C(=O)Nc4c(C)cccc4C)s3)n2)C1 [Example I-3]
% change of MS signal compared to control sample [1]: 5.7% | % change of MS signal compared to control sample [2]: 7.3% | % change of MS signal compared to control sample [3]: 8% | % change of MS signal compared to control sample [4]: −5.5% | % change of MS signal compared to control sample [5]: −17.2% | % change of MS signal compared to control sample [6]: 4.7% | % change of MS signal compared to control sample [7]: −12.1% | % change of MS signal compared to control sample [8]: −36.7% | % change of MS signal compared to control sample [9]: −7.6% | % change of MS signal compared to control sample [10]: 17.3% | % change of MS signal compared to control sample [11]: −47.2% | % change of MS signal compared to control sample [12]: −1.4% | % change of MS signal compared to control sample [13]: −23% | % change of MS signal compared to control sample [14]: −15.2% | % change of MS signal compared to control sample [15]: −14.5% | % change of MS signal compared to control sample [16]: 85.9% | % change of MS signal compared to control sample [17]: −14.7% | % change of MS signal compared to control sample ([18]; RSK1 domain1): −16.9% | % change of MS signal compared to control sample ([18]; RSK1 domain2): −20.8% | % change of MS signal compared to control sample [19]: −6.2% | % change of MS signal compared to control sample [20]: 9.9% | % change of MS signal compared to control sample ([21]; MST4, YSK1, Lys2, 90 min): 15.5% | % change of MS signal compared to control sample ([21]; NEK6, NEK7, Lys2, 90 min): −13.1% | % change of MS signal compared to control sample [21, 27]: −12% | % change of MS signal compared to control sample ([21]; PI4KA, PI4KAP2, ATP, 90 min): 12% | % change of MS signal compared to control sample ([21]; PKACa, PKCb, Lys2, 90 min): 3.3% | % change of MS signal compared to control sample ([21]; ROCK1, ROCK2, Lys2, 90 min): 12.5% | % change of MS signal compared to control sample [21, 28]: −7.3% | % change of MS signal compared to control sample ([21]; SRPK1, SRPK2, Lys1, 90 min): 22.3% | % change of MS signal compared to control sample ([21]; TAO1, TAO3, Lys2, 90 min): 14.3% | % change of MS signal compared to control sample ([21]; Wnk1, Wnk2, Wnk3, Lys2, 90 min): −1.2% | % change of MS signal compared to control sample ([21]; Wnk1, Wnk2, ATP Loop, 90 min): 6.8% | % change of MS signal compared to control sample [21, 29]: −0.1% | % change of MS signal compared to control sample ([21]; p38d, p38g, Lys2, 90 min): −0.7% | % change of MS signal compared to control sample [22]: −17.7% | % change of MS signal compared to control sample ([23]; ZC1/HGK, Lys1, 1 μM, 90 min, GF): −16.8% | % change of MS signal compared to control sample [24]: 1.6% | % change of MS signal compared to control sample [25]: 27% | % change of MS signal compared to control sample [26]: 40.2%

CCC(=O)N1CC[C@H](Nc2nccc(Nc3ncc(C(=O)Nc4c(C)cccc4C)s3)n2)C1 [Example I-9]
% change of MS signal compared to control sample [1]: −1.6% | % change of MS signal compared to control sample [2]: −1.7% | % change of MS signal compared to control sample [3]: 11.5% | % change of MS signal compared to control sample [4]: 2.8% | % change of MS signal compared to control sample [5]: −9.7% | % change of MS signal compared to control sample [6]: −1.9% | % change of MS signal compared to control sample [7]: −0.9% | % change of MS signal compared to control sample [8]: −1% | % change of MS signal compared to control sample [9]: 4.6% | % change of MS signal compared to control sample [10]: −1.2% | % change of MS signal compared to control sample [11]: −9.6% | % change of MS signal compared to control sample [12]: −4.2% | % change of MS signal compared to control sample [13]: 9.6% | % change of MS signal compared to control sample [14]: −8.3% | % change of MS signal compared to control sample [15]: −5.8% | % change of MS signal compared to control sample [16]: 51.8% | % change of MS signal compared to control sample [17]: 8% | % change of MS signal compared to control sample ([18]; RSK1 domain1): −5.1% | % change of MS signal compared to control sample ([18]; RSK1 domain2): −4.1% | % change of MS signal compared to control sample [19]: −15.7% | % change of MS signal compared to control sample [20]: −9.2% | % change of MS signal compared to control sample ([21]; ABL, ARG, Activation Loop): 46.1% and 75.4% | % change of MS signal compared to control sample ([21]; ABL, ARG, Lys1): 40.6% and 71.8% | % change of MS signal compared to control sample ([21]; AurA, AurB, AurC, ATP Loop): 5.5% and 2.8% | % change of MS signal compared to control sample ([21]; CK1g1, CK1g2, CK1g3, ATP Loop): −8.2% and −4.7% | % change of MS signal compared to control sample ([21]; FYN, SRC, YES, Activation Loop): 72.5% and 80.4% | % change of MS signal compared to control sample ([21]; JNK1, JNK2, JNK3, Lys2): −7% and 0.5% | % change of MS signal compared to control sample ([21]; KSR1, KSR2, Activation Loop): −14.6% and −16.2% | % change of MS signal compared to control sample ([21]; MAP2K1, MAP2K2, Lys1): −9.2% and −1.1% | % change of MS signal compared to control sample ([21]; MAP2K1, MAP2K2, Lys2): −6.4% and −4.5% | % change of MS signal compared to control sample ([21]; MAP3K2, MAP3K3, Lys2): 0.7% and 6.8% | % change of MS signal compared to control sample ([21]; MARK3, MARK4, Lys1): −10.4% and −7.1% | % change of MS signal compared to control sample ([21]; MER, TYRO3, Activation Loop): −14.7% | % change of MS signal compared to control sample ([21]; MST4, YSK1, Lys2, 90 min): 15.2% | % change of MS signal compared to control sample ([21]; NEK6, NEK7, Lys2, 90 min): −0.8% | % change of MS signal compared to control sample [21, 27]: −0.8% | % change of MS signal compared to control sample ([21]; PI4KA, PI4KAP2, ATP, 90 min): 3.6% | % change of MS signal compared to control sample ([21]; PKACa, PKCb, Lys2, 90 min): 25.3% | % change of MS signal compared to control sample ([21]; ROCK1, ROCK2, Lys2, 90 min): 1.7% | % change of MS signal compared to control sample [21, 28]: −6.1% | % change of MS signal compared to control sample ([21]; SRPK1, SRPK2, Lys1, 90 min): 2.5% | % change of MS signal compared to control sample ([21]; TAO1, TAO3, Lys2, 90 min): 9.3% | % change of MS signal compared to control sample ([21]; Wnk1, Wnk2, Wnk3, Lys2, 90 min): 4.4% | % change of MS signal compared to control sample ([21]; Wnk1, Wnk2, ATP Loop, 90 min): 7.6% | % change of MS signal compared to control sample [21, 29]: 1.8% | % change of MS signal compared to control sample ([21]; p38d, p38g, Lys2, 90 min): −27.1% | % change of MS signal compared to control sample [22]: −9.4% | % change of MS signal compared to control sample [23]: 15.3% | % change of MS signal compared to control sample [24]: 4.3% | % change of MS signal compared to control sample [25]: −3.9% | % change of MS signal compared to control sample [26]: 30.1%
